Laboratory results published in ChEMBL document CHEMBL4765458, “Synthesis and biological evaluation of organoselenium (NSAIDs-SeCN and SeCF) derivatives as potential anticancer agents” (Eur J Med Chem, 2020).
The source made the active and inactive calls. The calls are words filed in the database; no cut-off is given here.

Experiments:
[1] = Antioxidant activity assessed as bleomycin-Fe2+-induced DNA degradation by measuring absorbance at 0.1 mg/ml after 1 hr; type: functional
[2] = Antioxidant activity assessed as DPPH radical scavenging activity incubated for 30 mins under dark condition relative to control; type: functional; design: concentration or dose not given beside the values
HeLa [3] = assay: Cytotoxicity against human HeLa cells assessed as reduction in cell viability measured after 72 hrs by MTT assay; type: functional, cell-based
MCF7 [4] = assay: Induction of apoptosis in human MCF7 cells assessed as up regulation of IL-2 expression at IC50 measured after 48 hrs by ELISA relative to control; type: functional
MCF7 [5] = assay: Cytotoxicity against human MCF7 cells assessed as reduction in cell viability measured after 24 hrs by MTT assay; type: functional, cell-based; details: MCF7, 24 h
[6] = Antioxidant activity assessed as GPx-like activity by measuring oxidation of NADPH to NADP+ by NADPH-reductase coupled assay; type: functional
HeLa [7] = assay: Cytotoxicity against human HeLa cells assessed as reduction in cell viability measured after 24 hrs by MTT assay; type: functional, cell-based
HeLa [8] = assay: Cytotoxicity against human HeLa cells assessed as reduction in cell viability measured after 48 hrs by MTT assay; type: functional, cell-based
A549 [9] = assay: Cytotoxicity against human A549 cells assessed as reduction in cell viability measured after 72 hrs by MTT assay; type: functional, cell-based; details: A549, 72 h
SW480 [10] = assay: Cytotoxicity against human SW480 cells assessed as reduction in cell viability measured after 48 hrs by MTT assay; type: functional, cell-based; details: SW480, 48 h
A549 [11] = assay: cells; details: Homo sapiens, A549, 48 h
Description: Cytotoxicity against human A549 cells assessed as reduction in cell viability measured after 48 hrs by MTT assay

MCF7 [12] = assay: Cytotoxicity against human MCF7 cells assessed as reduction in cell viability measured after 48 hrs by MTT assay; type: functional, cell-based; details: MCF7, 48 h
MCF7 [13] = assay: Cytotoxicity against human MCF7 cells assessed as reduction in cell viability measured after 72 hrs by MTT assay; type: functional, cell-based; details: MCF7, 72 h
A549 [14] = assay: Cytotoxicity against human A549 cells assessed as reduction in cell viability measured after 24 hrs by MTT assay; type: functional, cell-based; details: A549, 24 h
MCF7 [15] = assay: Induction of apoptosis in human MCF7 cells assessed as down regulation of Bcl-2 expression at IC50 measured after 48 hrs by ELISA relative to control; type: functional
SW480 [16] = assay: Cytotoxicity against human SW480 cells assessed as reduction in cell viability measured after 24 hrs by MTT assay; type: functional, cell-based; details: SW480, 24 h
MCF7 [17] = assay: Induction of apoptosis in human MCF7 cells assessed as up regulation of caspase-3 expression at IC50 measured after 48 hrs by ELISA relative to control; type: functional
SW480 [18] = assay: Cytotoxicity against human SW480 cells assessed as reduction in cell viability measured after 72 hrs by MTT assay; type: functional, cell-based; details: SW480, 72 h

Compound	deltaA [1]	inhibition [2] [%]	IC50 (HeLa [3]) [µM]	fold change (FC) (MCF7 [4])	IC50 (MCF7 [5]) [µM]	Activity [6]	IC50 (HeLa [7]) [µM]	IC50 (HeLa [8]) [µM]	IC50 (A549 [9]) [µM]	IC50 (SW480 [10]) [µM]	IC50 (A549 [11]) [µM]	IC50 (MCF7 [12]) [µM]	IC50 (MCF7 [13]) [µM]	IC50 (A549 [14]) [µM]	Activity (MCF7 [15])	IC50 (SW480 [16]) [µM]	Activity (MCF7 [17])	IC50 (SW480 [18]) [µM]	Activity (MCF7 [4])
O=C1O[C@H]([C@@H](O)CO)C(O)=C1O	295	92.4	–	–	–	–	–	–	–	–	–	–	–	–	–	–	–	–	–
CC(C)Cc1ccc(C(C)C(=O)NCCC[Se]C#N)cc1 (stereo unspecified)	–	60.8	29.3	1.5	12.1	Active	13.5	26.3	28.5	5.3	30.2	14.3	16.5	24.4	Active	8.9	Active	6.4	–
CC(C)Cc1ccc(C(C)C(=O)NCCC[Se]C(F)(F)F)cc1 (stereo unspecified)	–	68.7	19.7	–	3.4	Active	11.5	17.4	18.5	3.3	15.2	4.3	2.8	9.4	>50%	4.9	Active	4.2	Active
